What follows are compounds tested against HCV RdRp (NS5B) (UniProt P26663).
HCV RdRp (NS5B), sequence (P26663 whole entry, looked up): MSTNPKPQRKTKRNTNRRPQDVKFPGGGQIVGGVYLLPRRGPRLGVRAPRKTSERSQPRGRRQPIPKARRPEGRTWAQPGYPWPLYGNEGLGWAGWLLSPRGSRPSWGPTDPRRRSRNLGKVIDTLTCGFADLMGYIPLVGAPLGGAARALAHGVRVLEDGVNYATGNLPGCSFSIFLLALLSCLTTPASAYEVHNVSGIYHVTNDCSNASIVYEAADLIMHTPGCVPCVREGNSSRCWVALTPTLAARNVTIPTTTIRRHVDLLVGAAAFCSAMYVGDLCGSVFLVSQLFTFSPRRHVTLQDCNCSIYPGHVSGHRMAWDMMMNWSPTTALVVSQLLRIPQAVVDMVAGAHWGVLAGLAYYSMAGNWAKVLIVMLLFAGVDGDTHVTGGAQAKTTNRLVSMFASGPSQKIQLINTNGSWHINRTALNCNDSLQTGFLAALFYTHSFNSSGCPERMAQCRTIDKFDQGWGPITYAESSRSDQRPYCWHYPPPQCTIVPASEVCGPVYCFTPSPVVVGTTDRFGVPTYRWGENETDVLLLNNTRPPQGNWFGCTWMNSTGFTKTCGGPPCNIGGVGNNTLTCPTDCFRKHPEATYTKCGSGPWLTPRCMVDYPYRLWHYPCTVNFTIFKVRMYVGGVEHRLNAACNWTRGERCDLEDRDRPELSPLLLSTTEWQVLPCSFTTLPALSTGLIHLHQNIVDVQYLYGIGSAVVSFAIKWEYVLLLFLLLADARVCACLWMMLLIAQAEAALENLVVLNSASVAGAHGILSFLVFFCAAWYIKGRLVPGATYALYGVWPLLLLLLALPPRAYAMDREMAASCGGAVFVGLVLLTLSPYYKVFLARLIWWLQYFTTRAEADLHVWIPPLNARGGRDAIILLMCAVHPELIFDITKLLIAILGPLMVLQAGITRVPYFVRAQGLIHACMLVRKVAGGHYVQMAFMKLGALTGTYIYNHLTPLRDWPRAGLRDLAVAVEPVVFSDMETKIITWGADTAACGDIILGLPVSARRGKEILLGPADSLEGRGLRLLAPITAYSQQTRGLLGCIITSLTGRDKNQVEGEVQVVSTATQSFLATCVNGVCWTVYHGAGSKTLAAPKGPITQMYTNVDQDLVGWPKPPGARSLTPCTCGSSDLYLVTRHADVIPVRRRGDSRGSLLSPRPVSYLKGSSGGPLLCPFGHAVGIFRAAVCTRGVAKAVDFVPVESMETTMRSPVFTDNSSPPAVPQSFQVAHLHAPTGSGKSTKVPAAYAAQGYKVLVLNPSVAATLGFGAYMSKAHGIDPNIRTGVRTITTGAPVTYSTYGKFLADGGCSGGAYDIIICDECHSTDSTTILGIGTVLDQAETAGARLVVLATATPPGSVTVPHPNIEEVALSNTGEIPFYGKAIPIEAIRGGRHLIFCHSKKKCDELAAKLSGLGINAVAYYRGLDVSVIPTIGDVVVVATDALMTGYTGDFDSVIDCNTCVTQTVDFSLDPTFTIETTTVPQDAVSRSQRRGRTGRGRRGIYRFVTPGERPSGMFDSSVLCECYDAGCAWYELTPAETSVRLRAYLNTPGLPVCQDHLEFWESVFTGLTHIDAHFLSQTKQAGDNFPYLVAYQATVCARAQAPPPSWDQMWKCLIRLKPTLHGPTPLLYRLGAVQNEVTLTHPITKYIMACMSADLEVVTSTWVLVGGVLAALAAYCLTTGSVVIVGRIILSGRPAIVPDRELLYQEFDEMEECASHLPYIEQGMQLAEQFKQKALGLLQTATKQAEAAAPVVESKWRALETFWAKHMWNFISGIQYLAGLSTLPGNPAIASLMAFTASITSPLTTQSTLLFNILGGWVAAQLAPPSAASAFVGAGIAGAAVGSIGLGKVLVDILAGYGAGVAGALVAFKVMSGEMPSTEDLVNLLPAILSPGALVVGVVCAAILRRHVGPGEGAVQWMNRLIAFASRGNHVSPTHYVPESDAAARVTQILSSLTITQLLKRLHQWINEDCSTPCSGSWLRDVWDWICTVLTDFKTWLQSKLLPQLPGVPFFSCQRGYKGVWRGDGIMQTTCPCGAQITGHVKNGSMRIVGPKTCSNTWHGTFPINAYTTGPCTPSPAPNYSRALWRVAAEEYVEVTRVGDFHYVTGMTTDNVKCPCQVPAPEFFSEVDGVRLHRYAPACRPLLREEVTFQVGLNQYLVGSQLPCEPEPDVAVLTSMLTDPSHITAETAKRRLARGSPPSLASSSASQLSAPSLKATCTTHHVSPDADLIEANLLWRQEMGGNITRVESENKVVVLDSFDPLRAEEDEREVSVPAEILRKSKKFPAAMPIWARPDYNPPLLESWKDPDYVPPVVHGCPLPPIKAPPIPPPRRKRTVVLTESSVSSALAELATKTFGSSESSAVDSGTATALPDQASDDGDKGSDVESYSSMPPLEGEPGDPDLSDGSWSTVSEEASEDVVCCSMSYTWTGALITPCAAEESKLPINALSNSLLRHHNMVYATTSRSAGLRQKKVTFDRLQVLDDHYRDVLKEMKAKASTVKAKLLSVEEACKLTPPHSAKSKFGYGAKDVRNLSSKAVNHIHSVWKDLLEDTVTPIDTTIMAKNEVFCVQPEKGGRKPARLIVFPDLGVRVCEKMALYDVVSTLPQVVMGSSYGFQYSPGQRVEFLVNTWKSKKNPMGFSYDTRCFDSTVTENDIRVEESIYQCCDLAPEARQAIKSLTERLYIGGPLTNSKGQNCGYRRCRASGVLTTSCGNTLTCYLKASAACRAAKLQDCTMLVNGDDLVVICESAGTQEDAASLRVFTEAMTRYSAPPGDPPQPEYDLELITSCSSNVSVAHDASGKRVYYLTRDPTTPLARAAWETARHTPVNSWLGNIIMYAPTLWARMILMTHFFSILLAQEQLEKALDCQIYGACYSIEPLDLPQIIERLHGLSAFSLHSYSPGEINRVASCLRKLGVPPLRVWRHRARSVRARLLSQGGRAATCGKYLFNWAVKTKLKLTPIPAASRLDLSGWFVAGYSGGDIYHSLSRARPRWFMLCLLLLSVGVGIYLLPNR
Type: biochemical, hepatitis C virus
In the case of `COc1ccc(C[C@H](N)C(=O)Nc2ccc(CN(C(=O)c3ccco3)C3CCCCC3)cc2)cc1` [Compound 9, (S)-FURAN-2-CARBOXYLIC ACID {4-[2-AMINO-3-(4-METHOXY-PHENYL)-PROPIONYLAMINO]-BENZYL}-CYCLOHEXYL-AMIDE], the IC50 is reported as over 50 µM.
Work on `Cc1ccc(NC(=O)[C@H](CCCCN)NC(=O)Nc2ccc(OCc3cccnc3)cc2)cc1` [Compound 261, (S)-6-AMINO-2-{3-[4-(PYRIDIN-3-YLMETHOXY)-PHENYL]-UREIDO}-HEXANOIC ACID P-TOLYLAMIDE] yielded an IC50 of over 50 µM.
With `Cc1ccc(NC(=O)[C@H](CCCCN)NC(=O)Nc2cccc3c2CCCC3)cc1` [Compound 78, (S)-6-AMINO-2-[3-(5,6,7,8-TETRAHYDRO-NAPHTHALEN-1-YL)-UREIDO]-HEXANOIC ACID P-TOLYLAMIDE] the IC50 was over 50 µM.
Work on `Cc1ccc(NC(=O)C(CCCCN)NC(=O)Nc2ccc(-c3ccccc3)cc2)cc1` [Compound 40, (S)-6-AMINO-2-(3-BIPHENYL-4-YL-UREIDO)-HEXANOIC ACID P-TOLYLAMIDE] yielded an IC50 of 10 to 50 µM.
`O=C(N[C@@H](Cc1c[nH]c2ccccc12)C(=O)N(Cc1ccccc1)C1CCCCC1)OCC1c2ccccc2-c2ccccc21` [Compound 49, (S)-[1-(BENZYL-CYCLOHEXYL-CARBAMOYL)-2-(1H-INDOL-3-YL)-ETHYL]-CARBAMIC ACID 9H-FLUOREN-9-YLMETHYL ESTER] gave an IC50 of over 50 µM.
`Cc1ccc(NC(=O)[C@H](CCCCN)NC(=O)COc2ccc(I)cc2)cc1` [Compound 327, (S)-6-AMINO-2-[2-(4-IODO-PHENOXY)-ACETYLAMINO]-HEXANOIC ACID P-TOLYLAMIDE] showed an IC50 of over 50 µM.
In the case of `Cc1ccc(NC(=O)C(CCCCN)NC(=O)Nc2ccc(Cc3ccccc3)cc2)cc1` [Compound 74, (S)-6-AMINO-2-[3-(4-BENZYL-PHENYL)-UREIDO]-HEXANOIC ACID P-TOLYLAMIDE], the IC50 is reported as 10 to 50 µM.
`Cc1ccc(NC(=O)[C@H](CCCCN)NC(=O)COc2ccc(Cl)cc2)cc1` [Compound 331, (S)-6-AMINO-2-[2-(4-CHLORO-PHENOXY)-ACETYLAMINO]-HEXANOIC ACID P-TOLYLAMIDE] gave an IC50 of over 50 µM.
`NCCCCN(CC(=O)Nc1cccc2[nH]ccc12)C(=O)Nc1ccc(OCc2ccccc2)cc1` [Compound 281, 2-[1-(4-AMINO-BUTYL)-3-(4-BENZYLOXY-PHENYL)-UREIDO]-NR-(1H-INDOL-4-YL)-ACETAMIDE] gave an IC50 of over 50 µM.
For `CCOC(=O)c1ccc(NC(=O)NC(CCCCN)C(=O)Nc2ccc(C)cc2)cc1` [Compound 245, (S)-4-[3-(5-AMINO-1-P-TOLYLCARBAMOYL-PENTYL)-UREIDO]-BENZOIC ACID ETHYL ESTER], the IC50 was over 50 µM.
In the case of `CNCC(=O)NCCCC(NC(=O)OCC1c2ccccc2-c2ccccc21)C(=O)Nc1ccc(C)cc1` [Compound 223, (S)-[4-(2-METHYLAMINO-ACETYLAMINO)-1-P-TOLYLCARBAMOYL-BUTYL]-CARBAMIC ACID 9H-FLUOREN-9-YLMETHYL ESTER], the IC50 is reported as 10 to 50 µM.
Compound `Cc1ccc(NC(=O)C2(NC(=O)OCC3c4ccccc4-c4ccccc43)CCCNC2)cc1` (centres unmarked) [Compound 109, (3-P-TOLYLCARBAMOYL-PIPERIDIN-3-YL)-CARBAMIC ACID 9H-FLUOREN-9-YLMETHYL ESTER] has an IC50 of over 50 µM.
`Cc1ccc(NC(=O)C(CCN)NC(=O)OCC2c3ccccc3-c3ccccc32)cc1` [Compound 108, (S)-(3-AMINO-1-P-TOLYLCARBAMOYL-PROPYL)-CARBAMIC ACID 9H-FLUOREN-9-YLMETHYL ESTER] gave an IC50 of over 50 µM.
`Cc1ccc(NC(=O)CC2CN(C(=O)C(C)N)CCN2C(=O)OCC2c3ccccc3-c3ccccc32)cc1` (centres unmarked) [Compound 185, 4-(R-2-AMINO-PROPIONYL)-2-(P-TOLYLCARBAMOYL-METHYL)-PIPERAZINE-1-CARBOXYLIC ACID 9H-FLUOREN-9-YLMETHYL ESTER] was tested, and the IC50 was over 50 µM.
`Cc1ccc(NC(=O)C(CCCCN)NC(=O)Cc2cccc3ccccc23)cc1` [Compound 91, (S)-6-AMINO-2-(2-NAPHTHALEN-1-YL-ACETYLAMINO)-HEXANOIC ACID P-TOLYLAMIDE] showed an IC50 of over 50 µM.
In the case of `NCCC[C@@H](NC(=O)Nc1ccc(OCc2ccccc2)cc1)C(=O)Nc1ccc(C2CCCCC2)cc1` [Compound 202, (R)-5-AMINO-2-[3-(4-BENZYLOXY-PHENYL)-UREIDO]-PENTANOIC ACID (4-CYCLOHEXYL-PHENYL)-AMIDE], the IC50 is reported as under 10 µM.
In the case of `NCCCC[C@@H](NC(=O)NCc1ccc(Cl)c(Cl)c1)C(=O)Nc1ccc(C2CCCCC2)cc1` [Compound 165, (R)-6-AMINO-2-[3-(3,4-DICHLORO-BENZYL)-UREIDO]-HEXANOIC ACID (4-CYCLOHEXYL-PHENYL)-AMIDE], the IC50 is reported as 10 to 50 µM.
`NCCCCC(NC(=O)OCC1c2ccccc2-c2ccccc21)C(=O)Nc1ccccc1` (stereo in doubt) [Compound 19, (S)-(5-AMINO-1-PHENYLCARBAMOYL-PENTYL)-CARBAMIC ACID 9H-FLUOREN-9-YLMETHYL ESTER] gave an IC50 of over 50 µM.
With `Cc1ccc(NC(=O)[C@H](CCCCN)NC(=O)Nc2ccc(Oc3ccccc3)cc2)cc1` [Compound 41, (S)-6-AMINO-2-[3-(4-PHENOXY-PHENYL)-UREIDO]-HEXANOIC ACID P-TOLYLAMIDE] the IC50 was over 50 µM.
`Cc1ccc(NC(=O)C(CCC(N)=O)NC(=O)OCC2c3ccccc3-c3ccccc32)cc1` [Compound 382, (R)-(3-CARBAMOYL-1-P-TOLYLCARBAMOYL-PROPYL)-CARBAMIC ACID 9H-FLUOREN-9-YLMETHYL ESTER] showed an IC50 of over 50 µM.
With `CSCCC(NC(=O)OCC1c2ccccc2-c2ccccc21)C(=O)Nc1ccc(C)cc1` (centres unmarked) [Compound 383] the IC50 was over 50 µM.
In the case of `Cc1ccc(NC(=O)C(CN)NC(=O)OCC2c3ccccc3-c3ccccc32)cc1` [Compound 401, (R)-(2-AMINO-1-P-TOLYLCARBAMOYL-ETHYL)-CARBAMIC ACID 9H-FLUOREN-9-YLMETHYL ESTER], the IC50 is reported as over 50 µM.
`Cc1ccc(NC(=O)C(Cc2ccc(O)cc2)NC(=O)OCC2c3ccccc3-c3ccccc32)cc1` [Compound 380, (R)-[2-(4-HYDROXY-PHENYL)-1-P-TOLYLCARBAMOYL-ETHYL]-CARBAMIC ACID 9H-FLUOREN-9-YLMETHYL ESTER] was tested, and the IC50 was over 50 µM.
`NCCCC[C@H](NC(=O)OCC1c2ccccc2-c2ccccc21)C(=O)Nc1ccc(-c2ccccc2)cc1` [Compound 143, (S)-[5-AMINO-1-(BIPHENYL-4-YLCARBAMOYL)-PENTYL]-CARBAMIC ACID 9H-FLUOREN-9-YLMETHYL ESTER] showed an IC50 of under 10 µM.
`Cc1ccc(NC(=O)[C@H](CCCCN)NS(=O)(=O)c2ccsc2)cc1` [Compound 399, (S)-6-AMINO-2-(THIOPHENE-3-SULFONYLAMINO)-HEXANOIC ACID P-TOLYLAMIDE] was tested, and the IC50 was over 50 µM.
Compound `NCCCC[C@@H](NC(=O)OCC1c2ccccc2-c2ccccc21)C(=O)Nc1ccc(C2CCCCC2)cc1` [Compound 128, (R)-[5-AMINO-1-(4-CYCLOHEXYL-PHENYLCARBAMOYL)-PENTYL]-CARBAMIC ACID 9H-FLUOREN-9-YLMETHYL ESTER] has an IC50 of under 10 µM.
`O=C(CC1CNCCN1C(=O)NCc1ccc(Cl)cc1)Nc1ccc(C2CCCCC2)cc1` (centres unmarked) [Compound 159, 2-[(4-CYCLOHEXYL-PHENYLCARBAMOYL)-METHYL]-PIPERAZINE-1-CARBOXYLIC ACID 4-CHLORO-BENZYLAMIDE] was tested, and the IC50 was 10 to 50 µM.
With `Cc1ccc(NC(=O)[C@H](CCCCN)NC(=O)Nc2cccc(Br)c2)cc1` [Compound 118, (S)-6-AMINO-2-[3-(3-BROMO-PHENYL)-UREIDO]-HEXANOIC ACID P-TOLYLAMIDE] the IC50 was over 50 µM.
Work on `Cc1ccc(NC(=O)[C@H](CCCCN)NC(=O)Nc2ccc(O)cc2)cc1` [Compound 194, (S)-6-AMINO-2-[3-(4-HYDROXY-PHENYL)-UREIDO]-HEXANOIC ACID P-TOLYLAMIDE] yielded an IC50 of over 50 µM.
